In patent publication US5759768A, “Assays for factors affecting circularization of DNA, assays for factors affecting DNA integration, factors, and uses thereof” (priority 1995, dated 1998):

system: viral DNA integrated into .phi.X174 target DNA; experiment: not given; format: biochemical, HIV-1; details: not given
Procedure: (§1) The chronically HIV-1 infected Molt IIIB human T cell line (HTLV IIIB virus strain) was the source of virus for cell-free infections. This human T cell line constitutively produces a low level of the HTLV-111B strain of HIV-1. Culture supernatant containing a high concentration of virus was prepared by incubating 300×10^6 Molt IIIB cells in 50 ml fresh RPMI 1640 medium containing 20% fetal calf serum and 10 ng of phorbol 12-myristate 13-acetate per ml for 20-24 hours. […] Cytoplasmic extracts (3 ml) were prepared 4-4.5 hours post-infection, by a modification of the procedure of Brown et al., Cell 49: 342-356 (1987).
(§2) At specified times after infection, cells were washed twice with buffer K (20 mM Hepes, pH 7.4, 150 mM KCl, 5 mM MgCl2, 1 mM dithiothreitol, […]) and then lysed at a concentration of 33×10^6 cells per ml in the same buffer containing 0.025% digitonin or 0.025% Triton X-100. Cells were extracted for 10 minutes at room temperature, and the lysate was centrifuged at 1000×g for 3 minutes, and is referred to as "cytoplasmic extract". Cytoplasmic extract was the source of viral DNA for analyses in the assays described below. The pellet from the initial low-speed centrifugation contained cell debris and intact nuclei and is called the "nuclear pellet". Cell extracts from uninfected SupT1 cells were prepared in the same manner.
(§3) DNA samples were layered on 0.8% agarose gels and electrophoresed at 1 V/cm for 15 hour in Tris/acetate/EDTA buffer. After electrophoresis, DNA was blotted by capillary action onto nitrocellulose (0.45 μm, Schleicher & Schuell).
In Vitro Integration Reaction
Pst I-linearized (replicative form III) .phi.X174 DNA, relaxed circular (replicative form II) .phi.X174 DNA, and single-stranded M13 DNA were used as targets for the in vitro integration of viral DNA. Target DNA was added to cytoplasmic extracts of intected SupT1 cells to a concentration of 10 μg/ml, and reaction mixtures were incubated at […]. Reactions, were stopped by the addition of SDS and proteinase K.
Cytoplasmic extracts prepared from SupT1 cells 4 hours after infection with HIV-1 were incubated with exogenously added target DNA under integration reaction conditions. Products of the reactions were analyzed by Southern blot hybridization. The time course of integration into linear .phi.X174 DNA target was determined. Target DNA was added to the extract and the reaction was stopped after 0,5,15,30, or 45 minutes of incubation at 37° C. (FIG. 11, lanes a-e, respectively). Purified linear viral DNA was incubated for 1 hour at 37° C. with cytoplasmic extract prepared from uninfected SupT1 cells (lane f). […] Arrows in the Figure indicate the positions of viral DNA products. L, linear viral DNA:I, integration product. Integration was detected by the shift of linear viral DNA on Southern blots from the characteristic 9.7-kilobase (kb) position to a position corresponding to viral DNA plus target DNA.

SMILES | Relative activity, % of standard
[Cl-].[Na+] [NcCl] | 100 % of standard

system: purified linear viral DNA; experiment: Circularization of purified linear viral DNA in cytoplasmic extracts of uninfected SupT1 cells; format: biochemical, HIV-1; details: 1 mM, 37° C., 45 min
Procedure: Further evidence of a role for host proteins in the formation of the 1-LTR and simple 2-LTR circular forms of viral DNA was obtained by testing the ability of uninfected cell extracts to mediate the circularization of purfied viral DNA. Linear viral DNA was prepared from cytoplasmic extracts of uninfected cells by SDS-proteinase K treatment and phenol extraction. The purfied DNA was added to cytoplasmic extracts prepared form uninfected SupT1 cells, in the presence or absence of added ATP.
Linear viral DNA was purified from cytoplasmic extracts of cells 4 hours post-infection as described above. In FIG. 22, a purified linear viral DNA was added to cytoplasmic extracts from uninfected SupT1 cells and incubated at 37° C. for 45 minutes. The uninfected SupT1 cells used for the preparation of extracts were either untreated (lanes 3-11) or cultured in the presence of 10 ng/ml phorbol 12-myristate 13-acetate for six hours prior to extraction (lane 2). […] Lanes 2-11: reaction products following incubation of purified linear viral DNA in uninfected extracts containing 1 mM ATP (lanes 2 and 3), nothing added (lane 4), 1 mM dATP (lane 5), 1 mM UTP (lane 6), 1 mM CTP (lane 7), 1 mM GTP (lane 8), 1 mM ATPγS (lane 9), or 1 mM ADP (lane 10). Lane 11: uninfected SupT1 cell extract was treated with proteinase K for 10 minutes at 37° C., then linear viral DNA was added and incubation continued for 45 minutes. In FIG. 23, lanes 1, 2, 4 and 5: purified linear viral DNA was incubated with T4 DNA ligase (lane 1), T4 polynucleotide kinase and T4 DNA ligase (lane 2), Klenow fragment of E. coli DNA polymerase I and T4 DNA ligase […], or Klenow fragment, T4 polynucleotide kinase, and T4 DNA ligase (lane 4). Lanes 3 and 6: in vitro circularization reaction products generated in cell extracts, included as size standards. Lane 3: cytoplasmic extracts from infected cells were incubated with […] for 45 minutes; lane 6: purified linear viral DNA was incubated with cytoplasmic extract from uninfected SupT1 cells in the presence of 1 mM ATP for 45 minutes. The possibility that a host DNA ligase was responsible for the formation of the simple 2-LTR circles was examined by testing the ability of phage T4 ligase to catalyze the circularization of linear viral DNA. […] Restriction endonuclease analysis of the reaction products formed in the presence of both Klenow fragment and T4 DNA ligase confirmed the formation of new 2-LTR junctions (not shown). […] This observation is consistent with previous reports that linear viral DNA prepared from cells infected with the murine leukemia virus [Fujiwara and Mizuuchi, Cell, 54:497-504 (1988) and HIV-1 [Pauza, Virology, 179:886-887 (1990)] consists of a mixture of molecules that are either blunt-ended or recessed by two nucleotides at each 3'-terminus. The removal of the two terminal nucleotides is mediated by the viral integrase as a necessary step in the process of integration [Roth et al., Cell 58: 47-54 (1989)]. […] This would explain the requirement of DNA polymerase for the subsequent joining of the ends of viral DNA by DNA ligase.

SMILES | 1-LTR circles from purified linear viral DNA | 2-LTR circles from purified linear viral DNA
Nc1ccn([C@@H]2O[C@H](COP(=O)(O)OP(=O)(O)OP(=O)(O)O)[C@@H](O)[C@H]2O)c(=O)n1 [CTP, cytosine triphosphate] | able to induce the formation of 1-LTR circles | failed to induce the formation of detectable 2-LTR circles
O=c1ccn([C@@H]2O[C@H](COP(=O)(O)OP(=O)(O)OP(=O)(O)O)[C@@H](O)[C@H]2O)c(=O)[nH]1 [UTP] | able to induce the formation of 1-LTR circles | failed to induce the formation of detectable 2-LTR circles
Nc1ncnc2c1ncn2[C@H]1C[C@H](O)[C@@H](COP(=O)(O)OP(=O)(O)OP(=O)(O)O)O1 [dATP, deoxyadenosine triphosphate] | able to induce the formation of 1-LTR circles | failed to induce the formation of detectable 2-LTR circles

system: linear viral DNA (circularization); experiment: not given; format: biochemical, HIV-1; details: not given
Procedure: as §1, §2
Viral DNA present in cytoplasmic extracts was deproteinated by incubation with proteinase K (1 mg/ml)/10 mM EDTA/0.5% SDS for 1 hour at 55° C. Samples were extracted successively with phenol/chloroform [1:1 (vol/vol)] and chloroform. DNA was ethanol-precipitated, washed with 70% ethanol, resuspended in 10 mM Tris.HCI (pH 7.4), and treated with RNase A (20 μpg/ml)for 1 hour at […]. before analysis by agarose gel electrophoresis and Southern blotting.
as §3
Cell extracts were prepared from cells four to five hours after infection with HIV-1, using the above-described methods to yield fully functional viral preintegration complexes. […] In all cases, a HIV-1 LTR-containing DNA fragment was used as a hybridization probe. Therefore, only LTR-containing DNA fragments are detected. […] Lane 5: Unintegrated viral DNA prepared by Hirt extraction of SupT1 cells infected 24 hours earlier with concentrated HIV-1. […] Viral DNA was purified from extracts incubated with 1 mM ATP for 15 minutes (lanes 1 and 4), with 1 mM ATP for 45 minutes (lanes 3 and 6), or with 1 mM ATPγS for 45 minutes (lanes 2 and 5). Lanes 1-3: uncut viral DNA; lanes 4-6: viral DNA was cut with SalI prior to electrophorosis. Lane 7: linear viral DNA, prepared from untreated extracts was digested with SalI prior to electrophorosis. Lane 8: unintegrated viral DNA prepared by Hirt extraction of infected cells, as described with respect to FIG. 14, digested with SalI prior to electrophoresis. […] Lanes 1-3. Viral DNA prepared from extracts treated with 1 mM ATP for 15 minutes, 30 minutes and 45 minutes, respectively. Lane 4: Viral DNA prepared from extract treated with 1 mM ATPγS for 45 minutes. Lanes 5-7: products of reactions shown in lanes 1-3, respectively, digested with SalI and PstI prior to electrophoresis. Lane 8: SalI, PstI digestion of viral DNA prepared from extract treated with 1 mM ATP for 90 minutes. Lane 9: SalI, PstI digestion of reaction products shown in lane 4. Lane 10: SalI, PstI digestion of unintegrated viral DNA prepared by Hirt extraction of infected cells.

SMILES | induction of 1-LTR circular form | induction of 2-LTR circles
Nc1ccn([C@@H]2O[C@H](COP(=O)(O)OP(=O)(O)OP(=O)(O)O)[C@@H](O)[C@H]2O)c(=O)n1 [CTP, cytosine triphosphate] | induced the formation of only a small amount of the 1-LTR circular form | induced the formation of 2-LTR circles

same assay, conditions: 1 mM, 37° C., 45 min

SMILES | circular DNA forms observed | induction of 1-LTR circular form | induction of 2-LTR circles | induction of both circular forms
Nc1ncnc2c1ncn2[C@@H]1O[C@H](COP(=O)(O)OP(=O)(O)O)[C@@H](O)[C@H]1O [ADP] | No circular DNA forms were observed | – | – | –
Nc1ncnc2c1ncn2[C@@H]1O[C@H](COP(=O)(O)O)[C@@H](O)[C@H]1O [AMP] | No circular DNA forms were observed | – | – | –
Nc1nc2c(ncn2[C@@H]2O[C@H](COP(=O)(O)OP(=O)(O)O)[C@@H](O)[C@H]2O)c(=O)[nH]1 [GDP] | No circular DNA forms were observed | – | – | –
Nc1nc2c(ncn2[C@@H]2O[C@H](COP(=O)(O)OP(=O)(O)OP(=O)(O)O)[C@@H](O)[C@H]2O)c(=O)[nH]1 [GTP, guanosine triphosphate] | – | induced the formation of only a small amount of the 1-LTR circular form | induced the formation of 2-LTR circles | –
O=c1ccn([C@@H]2O[C@H](COP(=O)(O)OP(=O)(O)OP(=O)(O)O)[C@@H](O)[C@H]2O)c(=O)[nH]1 [UTP] | – | induced the formation of only a small amount of the 1-LTR circular form | induced the formation of 2-LTR circles | –
Nc1ncnc2nc[nH]c12 [adenine] | No circular DNA forms were observed | – | – | –
Nc1ncnc2c1ncn2[C@@H]1O[C@H](CO)[C@@H](O)[C@H]1O [adenosine] | No circular DNA forms were observed | – | – | –
Nc1ncnc2c1ncn2[C@@H]1O[C@H](CO)C[C@H]1O [cordycepin, 3'-deoxyadenosine] | No circular DNA forms were observed | – | – | –
Nc1cc[nH]c(=O)n1 [cytosine] | No circular DNA forms were observed | – | – | –
Nc1ncnc2c1ncn2[C@H]1C[C@H](O)[C@@H](COP(=O)(O)OP(=O)(O)OP(=O)(O)O)O1 [dATP, deoxyadenosine triphosphate] | – | – | – | induced both circular forms with an efficiency comparable to ATP
Nc1nc2c(ncn2[C@H]2CC[C@@H](COP(=O)(O)OP(=O)(O)OP(=O)(O)O)O2)c(=O)[nH]1 [dd-GTP] | – | unable to induce detectable amounts of the 1-LTR circular forms | induced the formation of 2-LTR circles | –
Nc1ncnc2c1ncn2[C@H]1CC[C@@H](COP(=O)(O)OP(=O)(O)OP(=O)(O)O)O1 [ddATP, dideoxyadenesine triphosphate] | – | unable to induce detectable amounts of the 1-LTR circular forms | induced the formation of 2-LTR circles | –
Nc1ccn([C@H]2CC[C@@H](COP(=O)(O)OP(=O)(O)OP(=O)(O)O)O2)c(=O)n1 [ddCTP] | – | unable to induce detectable amounts of the 1-LTR circular forms | induced the formation of 2-LTR circles | –
Cc1cn([C@H]2CC[C@@H](COP(=O)(O)OP(=O)(O)OP(=O)(O)O)O2)c(=O)[nH]c1=O [ddTTP] | – | unable to induce detectable amounts of the 1-LTR circular forms | induced the formation of 2-LTR circles | –
Nc1nc2nc[nH]c2c(=O)[nH]1 [guanine] | No circular DNA forms were observed | – | – | –
Nc1nc2c(ncn2[C@@H]2O[C@H](CO)[C@@H](O)[C@H]2O)c(=O)[nH]1 [guanosine] | No circular DNA forms were observed | – | – | –
O=c1cc[nH]c(=O)[nH]1 [uracil] | No circular DNA forms were observed | – | – | –
